This note sets out measurements from patent publication US12577235B2, “Crystalline form of CXCR2 antagonist and application thereof” (Shenzhen Optimum Biological Technology Co., Ltd, priority 2019, dated 2026).

Broadly, the IC50 is the concentration that inhibits the measured activity by half. Read a low IC50 as greater potency. One may read the clearance as a measure of how efficiently the substance is removed, as volume per time.

Data set [1] concerns the target T1, CXCR2 (Homo sapiens, UniProt P25025).
T1 sequence (P25025 1-360): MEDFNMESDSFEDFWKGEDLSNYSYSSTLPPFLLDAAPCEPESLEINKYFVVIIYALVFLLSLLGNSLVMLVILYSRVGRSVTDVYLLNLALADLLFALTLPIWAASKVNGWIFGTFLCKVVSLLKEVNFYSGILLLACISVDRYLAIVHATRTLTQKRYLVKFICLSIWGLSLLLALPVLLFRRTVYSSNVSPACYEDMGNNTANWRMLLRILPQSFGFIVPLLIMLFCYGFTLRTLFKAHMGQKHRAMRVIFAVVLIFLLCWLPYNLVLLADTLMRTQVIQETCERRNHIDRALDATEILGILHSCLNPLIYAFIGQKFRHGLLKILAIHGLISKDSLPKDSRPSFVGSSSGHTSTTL
In words: PathHunter CXCR2 β-arrestin cell assay (CXCL8 agonist, chemiluminescence). It is filed as cell-based. Conditions: CXCR2 β-arrestin cells, CXCL8 at EC80. On the procedure:
CXCR2 β-arrestin cells (DiscoverX) of PathHunter® were cultured in standard conditions and inoculated at 20 μL/well to a 384-well white microplate. Before testing, the cells were incubated at 37° C. for an appropriate period of time. The test compound was serially 3-fold diluted in DMSO to give 8 concentrations. Shortly before testing, the serially diluted test samples were further diluted with test buffer to 5 folds of the test concentration. 5 μL of further diluted test samples were added to the cells and the cells were incubated at 37° C. for 30 min. The concentration of vehicle was 1%. 5 μL of 6×EC80 agonist (CXCL8) buffer was then added to the cells, and the cells were incubated at 37° C. for 90 min. The test signal was generated by adding 15 μL (50% v/v) of PathHunter detection mixture reagent in one portion and subsequently incubating the cells for 1 h. The chemiluminescence signal of the microplate was read by a PerkinElmer Envision™ instrument. The biological activities of the test compounds were analyzed by CBIS data analysis kit (ChemInnovation, CA), shown as IC50 values.

The nature of data set [2]: Plasma pharmacokinetic assay in rats. It is filed as in vivo, Lewis rats. On the procedure:
In this plasma pharmacokinetic assay, 4 male Lewis rats were used and randomized into two groups, with 2 animals in each group. The animals in the first group were given 2 mg/kg of the test compound by intravenous injection and the animals in the second group were given 10 mg/kg of the test compound by intragastric administration. An aqueous solution of 1% DMSO/20% PEG400/79% (HP-b-CD) was used as the vehicle, and the resulting intravenous and intragastric formulations (adjusted to pH=2.78) were clear solutions. Blood samples were collected from saphenous veins of animals at 0.0830, 0.25, 0.5, 1, 2, 4, 6, 8 and 24 hours post-dose for the intravenous injection group, and at 0.25, 0.5, 1, 2, 4, 6, 8 and 24 hours post-dose for the intragastric administration group, with 3 samples at each time point. Plasma samples of the intragastric administration group were cryopreserved at −80° C. and thawed before LC-MS/MS sample analysis. Acetonitrile containing internal standard was added to the thawed plasma samples at a certain ratio to precipitate proteins.
The mixture was centrifuged, and the supernatant was subjected to analysis by LC-MS/MS. An API4000 or 5500 system equipped with ACQUITY UPLC BEH C18 (2.1×50 mm, 1.7 μm) column and ESI positive or negative ion source was used. Each analysis batch included standard samples with 8 concentrations. A curve of the ratio of the peak areas of the test compound to the internal standard (IS) vs. the concentration of the test compound in the plasma sample was plotted, and linear regression was performed using 1/X^2 as weighting coefficient to give a regression equation between the measured response and the concentration. Each analysis batch also included corresponding quality control samples. Data processing was performed using Phoenix 6.3 WinNonlin® to give corresponding PK parameters.

Data set [3] deals with PPE-induced SD rat COPD model. The experiment in a line: Therapeutic effect on PPE-induced COPD model. The data set is classed as in vivo, SD rats. Conditions: 30 mpk intragastric daily, 4 weeks. The text has this: • To test the therapeutic effect of the compound on PPE-induced SD rat COPD model. Materials: • Animals: SD rats (male, 160-180 g, 6 weeks age) • Test compounds: porcine pancreatic elastase (Sigma, 0.068 U/μL); Danirixin, compound 1. • Grouping: 1) vehicle group • 2) COPD model group (porcine pancreatic elastase modeling group/solvent group) • 3) PPE+Danirixin (30 mpk) • 4) PPE+compound 1 (10 mpk) • 5) PPE+compound 1 (30 mpk) Procedures: • 1. Modeling: PPE was given retrolingually. • 2. Administration: an aqueous solution of 1% DMSO/20% PEG400/79% (HP-b-CD) was used as the vehicle, and the drugs were administrated intragastrically everyday at a volume of 2 mL/rat for 4 weeks. • 3. Endpoint: On day 29, pulmonary function test, sample collection, and inflammatory cell count in bronchoalveolar lavage fluid.
Bronchoalveolar lavage: The rats were sacrificed, and dissected at the neck. Trachea intubation was performed. 1 mL of cold […] at 4° C. was infused for 3 lavages, and the lavage fluids were combined. The combined lavage fluids were centrifuged at 1200 rpm/min for 5 min, and the supernatant was discarded. The cell suspension was collected;

Data set [4] has as its system rat COPD model induced by smoking combined with lipopolysaccharide. In words: Anti-inflammation effect in rat COPD model induced by smoking combined with lipopolysaccharide. It is filed as in vivo, SD rats. Particulars: Danirixin 30 mpk; crystalline form A 3-30 mpk. On the procedure:
Modeling: the animal model was prepared by exposing the rats to cigarette smoke once daily for 14 days. The rats were smoked for 90 min per day in 2 portions with a break of 10 min. 18 Marlboro cigarettes (with a tar content of 11 mg) were given each time. LPS was administered dropwise via airway at 200 μg/rat once weekly. The administration dropwise was performed on days 6 and 13 of smoke exposure (on the day of LPS administration dropwise, only LPS was administered dropwise for modeling without smoke exposure). • 2. Administration: an aqueous solution of 1% DMSO/20% PEG400/79% (HP-b-CD) was used as the vehicle, and the drugs were administrated intragastrically everyday at a volume of 5 mL/kg for 2 weeks. • 3. Endpoint: On day 15, pulmonary function test, sample collection, inflammatory cell count in bronchoalveolar lavage fluid, pathological analysis, and lung tissue MPO and MMP9 assay were carried out. Procedures of Pulmonary Function Test:
After the last smoking and modeling were finished, pulmonary function was tested for each group of animals on the second day, and pulmonary resistance and compliance were detected under stimulation of methacholine chloride at different doses. The animals were anesthetized by intraperitoneal injection with […] of 25% urethane. After the animals were deeply anesthetized, airway intubation was performed by separating airways, and meanwhile, jugular veins were separated. After breathing stably, the animals were put into a plethysmograph. Drug administration pipelines were inserted into the separated jugular veins. After the animals were in rest state for 1-2 min and the breathing curves were stable, then detection was started. Rats were administered with methacholine chloride at doses of 0, 0.0083, 0.025, 0.075, 0.225, 0.675 mg/kg by jugular vein intubation. The increase in airway resistance and decrease in pulmonary compliance were observed after each administration. After 1-2 min, the parameters returned to near the baseline of the previous concentration of methacholine chloride, and methacholine chloride of the next concentration was injected. After the detection was finished, subsequent alveolar lavage and sample collection were performed.
After the pulmonary function test was finished, the rats were sacrificed by cervical dislocation. After the animals were confirmed dead, the lungs were carefully separated, a lavage syringe was inserted into the main trachea and fixed with 2-0 silk thread. The right lung was ligated. 5 mL of low-temperature normal saline was slowly injected through the lavage syringe. The normal saline was slowly extracted after confirming that the normal saline was injected into the left lung. The operation was repeated twice. By the three lavages, a total of 15 mL of normal saline was injected for lavage. The obtained BALF was injected into a 15 mL centrifuge tube and preserved in a storage box at 4° C. for subsequent BALF cells counting.
After BALF was collected, the right lung which was not infused was taken off and weighted. The two upper lobes of the right lung were put into a cryopreservation tube, frozen in a freezer at −80° C. for later use. Lower lobe tissues were fixed in formalin.
1 mL of homogenously mixed BALF was added into 1 mL of a solution of 1% glacial acetic acid in normal saline. Cells were counted using a hemocytometer. The remaining lavage fluid was centrifuged at 1500 r/min for 10 min at 4° C. to give a cell mass. The cells were resuspended in 200 μL of normal saline, uniformly coated on a glass slide and stained by Wright-Giemsa stain. Macrophages, neutrophils and lymphocytes in a total of 200 cells were counted under a microscope, and the proportions of the cells was calculated. For lavage fluid collection, animals failing the lavage fluid collection were not summarized. […]

Take `O=C(Nc1ccc(Cl)c(S(=O)(=O)[C@H]2CCCNC2)c1O)N[C@@H]1CCCc2cc(C(F)(F)F)oc21` [Compound 1]: in data set [1], the IC50 was determined as 22 nM. In addition, in data set [2] (rat, plasma, po, male Lewis rats, 10 mg/kg intragastric, read-out: Intragastric administration Half life (T1/2) (converted)), the half-life is 253 min. The Cmax in data set [2] (rat, plasma, po, male Lewis rats, 10 mg/kg intragastric, read-out: Intragastric administration Maximum plasma concentration (Cmax)) stood at 3 µM. Besides, the AUC in data set [2] (rat, plasma, po, male Lewis rats, 10 mg/kg intragastric, read-out: Intragastric administration Plasma exposure (AUC)) was 31.3 µM·h. In addition, the clearance in data set [2] (rat, plasma, male Lewis rats, 2 mg/kg intravenous, read-out: Intravenous injection Clearance (CL)) worked out at 5.07 mL/min/kg. Moreover, in data set [2] (rats), the “Pharmacokinetic properties (in words)” value is “good pharmacokinetic properties”.

As for `Cc1c(F)cccc1NC(=O)Nc1ccc(Cl)c(S(=O)(=O)[C@H]2CCCNC2)c1O` [Danirixin, reference compound], the “Count of immune inflammatory cells (neutrophils, macrophages, lymphocytes) in bronchoalveolar lavage fluid” value in data set [3] is “significantly reduced”. The “Anti-inflammatory effect (summary)” value in data set [4] is on record as “significant anti-inflammatory effect”.
